15 compounds from patent US11981666B2, “GLP-1 receptor agonist and composition and use thereof” (HANGZHOU ZHONGMEIHUADONG PHARMACEUTICAL CO., LTD., priority 2021, dated 2024) can be followed below.

One data set concerns the target T1, Human GLP-1R (Homo sapiens, UniProt P43220).
T1 construct: expressed in transfected cells
The data set can be described thus: GLP-1R agonistic activity assay (HTRF cAMP, 293A GFP-GLP-1R cells). The format is cell-based. To be noted: cAMP level, geometric mean. The text has this: The method was a competitive immunoassay.
For orientation: Time-resolved FRET reads energy transfer from a long-lived donor to a nearby acceptor.

Data set [1] can be described thus: Metabolic stability in (human) liver microsomes. The format is in vitro ADME. The settings on record: pH 7.4, test concentration 1 μM. On the technique in general: Liver microsomes are a subcellular fraction often used to study metabolism.
Description: 3×NADPH stock solution (6 mM, 5 mg/mL) was prepared by dissolving NADPH in the buffer solution; 4. 30 μL of 1.5 μM additive solution containing 0.75 mg/mL microsomal solution was distributed to the plates designated for different time points (0, 5, 15, 30, 45 minutes); 5. at 0 min, 150 μL of ACN containing IS was added to the wells of the plate, followed by addition of 15 μL of NADPH stock solution (6 mM, step 3); 6. all other plates were pre-incubated at 37° C. for 5 minutes; 7. adding 15 μL of NADPH stock solution to the plate to start the reaction and timing; 8. 150 μL of ACN containing IS was added to the wells of the corresponding plates to stop the reaction at 5 min, 15 min, 30 min and 45 min, respectively; 9. after quenching, the plates were shaken on a shaker for 10 minutes (600 rpm/min) and then centrifuged at 6000 rpm for 15 minutes; 10. 80 μL of supernatant was transferred from each well to a 96-well sample plate containing 140 μL water for LC/MS analysis.
Detection method: LC-MS/MS-11 (8050), internal standard: tolbutamide; MS conditions: positive ion ESI for testosterone and test compound, and negative ion ESI for tolbutamide; Mobile phases: mobile phase A is 0.1% FA in water, and mobile phase B is 0.1% FA in ACN; Column and specification: ACQUITY UPLC HSS T3 1.8 um 2.1*50 mm.
The target of the next data set is T2, hERG potassium channels (Homo sapiens, UniProt Q12809).
T2 construct: expressed in transfected cells; host or cells: HEK-293-hERG cells
In words: Test for inhibition of hERG potassium channels (whole-cell patch clamp, HEK-293-hERG cells). It counts as cell-based. The source says: Positive control: Amitriptyline hydrochloride or Terfenadine

In data set [2] the test system is ICR mice. In words: Toxicological experiment in mice, 14-day repeated oral gavage (toxicity study). The format is in vivo. On the procedure: (§1) Experimental method: 212 ICR mice (SPF grade), half male and half female. Animals in groups 1-5 were used for toxicity study, with 10 male and 10 female animals in each group; and animals in groups 6-9 were used for toxicokinetic study, with 14 male and 14 female animals in each group (2 of them were spare animals). […] Animals in Groups 1-9 were administered orally once a day for 14 consecutive days.

Data set [3] is described as follows: Toxicological experiment in mice, 14-day repeated oral gavage (toxicokinetic study). The format is in vivo, mouse. To be noted: ICR, mouse, po, 200 mg/kg, Day 14; for AUC(0-t): plasma, read-out: AUC(0-t), the systemic exposure (first value listed). On the procedure:
as §1

Data set [4] has as its system ICR mice. The data set is described as above. The format is in vivo, mouse. The settings on record: toxicokinetic study, male animals, 200 mg/kg oral once a day for 14 days. On the procedure:
as §1

Molecules are shown by their SMILES. Like-named read-outs stand apart in the source and are kept apart here.

As a reminder, the EC50 is the midpoint of the concentration-response curve. Low readings indicate greater potency, high ones weaker potency. As a reminder, the half-life is how long it takes for the measured level to halve. High values mean slow loss, low ones fast loss. In general, IC50 refers to the concentration needed to halve the response being measured. Higher therefore signals weaker potency in that assay. What is called AUC(0-inf) is total exposure, with the tail of the curve extrapolated. Lower therefore signals low exposure. For orientation: Cmax means the highest concentration seen after dosing. For orientation: AUC(0-t) means the area under the concentration-time curve up to a stated or last time point.

T1 sequence (P43220 24-463): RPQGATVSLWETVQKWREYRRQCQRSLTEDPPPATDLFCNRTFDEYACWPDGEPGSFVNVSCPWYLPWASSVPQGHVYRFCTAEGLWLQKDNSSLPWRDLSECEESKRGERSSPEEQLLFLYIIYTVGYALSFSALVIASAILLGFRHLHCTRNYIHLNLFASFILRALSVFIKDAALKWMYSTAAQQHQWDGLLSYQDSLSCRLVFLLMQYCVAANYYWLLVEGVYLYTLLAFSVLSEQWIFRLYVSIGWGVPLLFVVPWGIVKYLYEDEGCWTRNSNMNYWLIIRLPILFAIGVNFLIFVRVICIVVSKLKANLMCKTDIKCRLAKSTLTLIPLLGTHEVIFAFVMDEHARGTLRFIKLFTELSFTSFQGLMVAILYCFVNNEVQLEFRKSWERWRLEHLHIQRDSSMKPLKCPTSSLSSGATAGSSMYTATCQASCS
T2 sequence (Q12809 whole entry): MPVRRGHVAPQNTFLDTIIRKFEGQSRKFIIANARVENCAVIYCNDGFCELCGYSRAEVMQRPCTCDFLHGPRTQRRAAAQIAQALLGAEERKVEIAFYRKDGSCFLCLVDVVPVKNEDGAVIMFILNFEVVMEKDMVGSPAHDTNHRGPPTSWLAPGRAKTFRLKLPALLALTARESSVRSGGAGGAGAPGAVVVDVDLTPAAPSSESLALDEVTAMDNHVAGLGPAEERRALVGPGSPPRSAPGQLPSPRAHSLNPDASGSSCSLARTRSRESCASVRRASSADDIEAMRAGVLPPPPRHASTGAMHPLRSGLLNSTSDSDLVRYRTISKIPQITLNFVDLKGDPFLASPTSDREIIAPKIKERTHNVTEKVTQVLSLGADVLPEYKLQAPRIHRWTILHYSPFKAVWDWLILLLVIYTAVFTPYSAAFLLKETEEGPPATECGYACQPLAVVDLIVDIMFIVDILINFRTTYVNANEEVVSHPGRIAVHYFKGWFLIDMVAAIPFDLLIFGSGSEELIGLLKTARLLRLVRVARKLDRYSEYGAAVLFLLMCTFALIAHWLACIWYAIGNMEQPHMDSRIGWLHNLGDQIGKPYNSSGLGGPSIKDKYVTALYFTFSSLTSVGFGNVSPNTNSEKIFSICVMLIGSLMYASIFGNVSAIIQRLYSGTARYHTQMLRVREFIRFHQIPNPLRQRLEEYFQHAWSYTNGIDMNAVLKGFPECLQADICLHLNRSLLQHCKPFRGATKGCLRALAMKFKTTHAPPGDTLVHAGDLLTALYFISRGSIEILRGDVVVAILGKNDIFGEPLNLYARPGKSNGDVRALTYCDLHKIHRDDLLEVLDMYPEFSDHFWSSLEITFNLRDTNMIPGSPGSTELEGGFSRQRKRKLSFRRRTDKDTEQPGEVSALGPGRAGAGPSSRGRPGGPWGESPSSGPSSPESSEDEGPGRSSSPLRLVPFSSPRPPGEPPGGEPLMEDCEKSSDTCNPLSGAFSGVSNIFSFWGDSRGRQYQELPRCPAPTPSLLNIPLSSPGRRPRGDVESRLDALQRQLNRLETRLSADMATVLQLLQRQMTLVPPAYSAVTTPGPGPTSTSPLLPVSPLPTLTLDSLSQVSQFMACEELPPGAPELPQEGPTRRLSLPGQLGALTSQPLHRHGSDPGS

As to `O=C(O)c1ccc2nc(CN3CCC4c5nc(OCc6ccc(C7COC7)cc6F)ccc5COCC4C3)n(C[C@@H]3CCO3)c2c1` (single isomer, unassigned) [Compound 12-B], the EC50 on Human GLP-1R came to 0.1 nM. This compound displayed a half-life at 1 μM in data set [1] of 71.9 min.
With `O=C(O)c1ccc2nc(CN3CCC(c4cccc(OCc5ccc(C6COC6)cc5C(F)F)n4)CC3)n(C[C@@H]3CCO3)c2c1` [Compound 18, (S)-2-((4-(6-((2-(difluoromethyl)-4-(oxetan-3-yl)benzyl)oxy)pyridin-2-yl)piperidin-1-yl)methyl)-1-(oxetan-2-ylmethyl)-1H-benzo[d]imidazole-6-carboxylic acid], the EC50 on Human GLP-1R was found to be 0.85 nM.
As for `O=C(O)c1ccc2nc(CN3CCC4c5nc(OCc6ccc(C7COC7)cc6Cl)ccc5COCC4C3)n(CC3CCO3)c2c1` (single isomer, unassigned) [Compound 17-B], the EC50 at Human GLP-1R was 0.14 nM. Compared with the last compound, the EC50 is about 6.1-fold lower.
For `O=C(O)c1ccc2nc(CN3CCC(c4cccc(OCc5ccc(C6COC6)cc5F)n4)CC3)n(CC3(F)CCC3)c2c1` [Compound 9, 2-((4-(6-((2-fluoro-4-(oxetan-3-yl)benzyl)oxy)pyridin-2-yl)piperidin-1-yl)methyl)-1-((1-fluorocyclobutyl)methyl)-1H-benzo[d]imidazole-6-carboxylic acid], it took 0.39 nM to reach a half-maximal effect on Human GLP-1R (EC50). This EC50 lies about 2.8-fold higher than the previous one.
The same measure, in the same setting: in the case of `N#CCC1(Cn2c(Cc3ccc(-c4cccc(OCc5ccc(C6COC6)cc5F)n4)cc3F)nc3ccc(C(=O)O)cc32)CC1` [Compound 8, 1-((1-(cyanomethyl)cyclopropyl)methyl)-2-(2-fluoro-4-(6-((2-fluoro-4-(oxetan-3-yl)benzyl)oxy)pyridin-2-yl)benzyl)-1H-benzo[d]imidazole-6-carboxylic acid] it was 0.02 nM; in that of `O=C(O)c1ccc2nc(CN3CCC(c4cccc(OCc5ccc(C6(F)COC6)cc5F)n4)CC3)n(C[C@@H]3CCO3)c2c1` [Compound 15, (S)-2-((4-(6-((2-fluoro-4-(3-fluoroxetan-3-yl)benzyl)oxy)pyridin-2-yl)piperidin-1-yl)methyl)-1-(oxetan-2-ylmethyl)-1H-benzo[d]imidazole-6-carboxylic acid], 0.08 nM.
Turning to `O=C(O)c1ccc2nc(CN3CCC4=C(COCc5ccc(OCc6ccc(C7COC7)cc6F)nc54)C3)n(C[C@@H]3CCO3)c2c1` [Compound 7, (S)-2-((2-((2-fluoro-4-(oxetan-3-yl)benzyl)oxy)-5,8,10,11-tetrahydro-oxepino[4,3-b: 6,5-c′]dipyridin-9(7H)-yl)methyl)-1-(oxetan-2-ylmethyl)-1H-benzo[d]imidazole-6-carboxylic acid], the EC50 on Human GLP-1R was 0.1 nM. The half-life at 1 μM in data set [1] stood at 104 min.
Take `O=C(O)c1ccc2nc(Cc3ccc(-c4cccc(OCc5ccc(C6COC6)cc5F)n4)cc3F)n(CC3(CF)CC3)c2c1` [Compound 10, 2-(2-fluoro-4-(6-((2-fluoro-4-(oxetan-3-yl)benzyl)oxy)pyridin-2-yl)benzyl)-1-((1-(fluoromethyl)cyclopropyl)methyl)-1H-benzo[d]imidazole-6-carboxylic acid]: the concentration giving a half-maximal response (EC50) at Human GLP-1R is 0.03 nM.
Same read-out and setting: in the case of `O=C(O)c1ccc2nc(CN3CCC(c4cccc(OCc5ccc(C6COC6)cc5F)n4)CC3)n(CC3(CF)CC3)c2c1` [Compound 5, 2-((4-(6-((2-fluoro-4-(oxetan-3-yl)benzyl)oxy)pyridin-2-yl)piperidin-1-yl)methyl)-1-((1-(fluoromethyl)cyclopropyl)methyl)-1H-benzo[d]imidazole-6-carboxylic acid] it was 0.003 nM.
On the same count and under the same terms, next, `N#CCC1(Cn2c(CN3CCC(c4cccc(OCc5ccc(C6COC6)cc5F)n4)CC3)nc3ccc(C(=O)O)cc32)CC1` [Compound 4, 1-((1-(cyanomethyl)cyclopropyl)methyl)-2-((4-(6-((2-fluoro-4-(oxetan-3-yl)benzyl)oxy)pyridin-2-yl)piperidin-1-yl)methyl)-1H-benzo[d]imidazole-6-carboxylic acid]: 0.08 nM.
The compound `COc1cc(C2COC2)ccc1COc1cccc(C2CCN(Cc3nc4ccc(C(=O)O)cc4n3C[C@@H]3CCO3)CC2)n1` [Compound 3, (S)-2-((4-(6-((2-methoxy-4-(oxetan-3-yl)benzyl)oxy)pyridin-2-yl)piperidin-1-yl)methyl)-1-(oxetan-2-ylmethyl)-1H-benzo[d]imidazole-6-carboxylic acid] registered an EC50 at Human GLP-1R of 0.03 nM. Moreover, the half-life at 1 μM in data set [1] turned out to be 154 min.
Compound `O=C(O)c1ccc2nc(CN3CCC(c4cccc(OCc5ccc(C6COC6)cn5)n4)CC3)n(C[C@@H]3CCO3)c2c1` [Compound 6, (S)-1-(oxetan-2-ylmethyl)-2-((4-(6-((5-(oxetan-3-yl)pyridin-2-yl)methoxy)pyridin-2-yl)piperidin-1-yl)methyl)-1H-benzo[d]imidazole-6-carboxylic acid] yielded an EC50 at Human GLP-1R of 0.7 nM. The compound further returned a half-life at 1 μM in data set [1] of 43 min.
The like results for `O=C(O)c1ccc2nc(CN3CCC(c4cccc(OCc5ccc(C6COC6)cc5Cl)n4)CC3)n(C[C@@H]3CCO3)c2c1` [Compound 2, (S)-2-((4-(6-((2-chloro-4-(oxetan-3-yl)benzyl)oxy)pyridin-2-yl)piperidin-1-yl)methyl)-1-(oxetan-2-ylmethyl)-1H-benzo[d]imidazole-6-carboxylic acid] were, in that order, 0.07 nM and 123 min.
The matching figures for `O=C(O)c1ccc2nc(Cc3ccc(-c4cccc(OCc5ccc(C6COC6)cc5F)n4)cc3F)n(C[C@@H]3CCO3)c2c1` [Compound 11, (S)-2-(2-fluoro-4-(6-((2-fluoro-4-(oxetan-3-yl)benzyl)oxy)pyridin-2-yl)benzyl)-1-(oxetan-2-ylmethyl)-1H-benzo[d]imidazole-6-carboxylic acid]: 0.011 nM and 63.2 min.
In the case of `N#Cc1ccc(COc2cccc(C3CCN(Cc4nc5ccc(C(=O)O)cc5n4C[C@@H]4CCO4)CC3)n2)c(F)c1` [Compound 20, 2-[(4-{6-[(4-cyano-2-fluorophenyl)methoxy]pyridin-2-yl}piperidin-1-yl)methyl]-1-{[(2S)-oxetan-2-yl]methyl}-1H-1,3-benzodiazole-6-carboxylic acid, reference compound], half-maximal inhibition on hERG potassium channels (IC50) required 5.8 µM. In data set [1], this compound registered a half-life at 1 μM of 112 min. Further, the “non-toxic response dose level” value in the data set with ICR mice [2] (ICR mice, gavage once a day for 14 consecutive days) is “less than 200 mg/kg”. Besides, in the data set on ICR mice [2] (compared to vehicle control), the “biochemical analysis of serum” value is recorded as “increase in TBIL”. Besides, the clinical observation entry with ICR mice [2] (toxicity and toxicokinetic studies, 200 mg/kg) was “decreased activity, piloerection, cold skin when touched, arched-back posture and prone position were frequently observed”. Besides, the animals found dead is recorded as 2/10 in the data set with ICR mice [2] (toxicity study, male animals, 200 mg/kg oral once a day for 14 days) and 4/14 in the data set on ICR mice [4]. The AUC(0-inf) in data set [3] (plasma of female animals) is 331 µg·h/mL; in data set [3] (plasma of male animals) it was 254 µg·h/mL. The Cmax was 104 µg/mL in data set [3] (plasma of female animals) and 91 µg/mL in data set [3] (plasma of male animals). For the same compound, the AUC(0-t) was found to be 338 µg·h/mL in data set [3] (female, plasma of female animals) and 387 µg·h/mL in data set [3] (male, plasma of male animals).
